Data published in ChEMBL document CHEMBL1143034, “The screening and characterization of 6-aminopurine-based xanthine oxidase inhibitors” (Bioorg Med Chem, 2007).

Legend:
[1] = molecular target: T1, Xanthine dehydrogenase/oxidase (Homo sapiens, UniProt P47989); test: Inhibition of human xanthine oxidase
[2] = molecular target: T1, Xanthine dehydrogenase/oxidase; test: Inhibition of human xanthine oxidase at 30 uM

T1 sequence (P47989 whole entry): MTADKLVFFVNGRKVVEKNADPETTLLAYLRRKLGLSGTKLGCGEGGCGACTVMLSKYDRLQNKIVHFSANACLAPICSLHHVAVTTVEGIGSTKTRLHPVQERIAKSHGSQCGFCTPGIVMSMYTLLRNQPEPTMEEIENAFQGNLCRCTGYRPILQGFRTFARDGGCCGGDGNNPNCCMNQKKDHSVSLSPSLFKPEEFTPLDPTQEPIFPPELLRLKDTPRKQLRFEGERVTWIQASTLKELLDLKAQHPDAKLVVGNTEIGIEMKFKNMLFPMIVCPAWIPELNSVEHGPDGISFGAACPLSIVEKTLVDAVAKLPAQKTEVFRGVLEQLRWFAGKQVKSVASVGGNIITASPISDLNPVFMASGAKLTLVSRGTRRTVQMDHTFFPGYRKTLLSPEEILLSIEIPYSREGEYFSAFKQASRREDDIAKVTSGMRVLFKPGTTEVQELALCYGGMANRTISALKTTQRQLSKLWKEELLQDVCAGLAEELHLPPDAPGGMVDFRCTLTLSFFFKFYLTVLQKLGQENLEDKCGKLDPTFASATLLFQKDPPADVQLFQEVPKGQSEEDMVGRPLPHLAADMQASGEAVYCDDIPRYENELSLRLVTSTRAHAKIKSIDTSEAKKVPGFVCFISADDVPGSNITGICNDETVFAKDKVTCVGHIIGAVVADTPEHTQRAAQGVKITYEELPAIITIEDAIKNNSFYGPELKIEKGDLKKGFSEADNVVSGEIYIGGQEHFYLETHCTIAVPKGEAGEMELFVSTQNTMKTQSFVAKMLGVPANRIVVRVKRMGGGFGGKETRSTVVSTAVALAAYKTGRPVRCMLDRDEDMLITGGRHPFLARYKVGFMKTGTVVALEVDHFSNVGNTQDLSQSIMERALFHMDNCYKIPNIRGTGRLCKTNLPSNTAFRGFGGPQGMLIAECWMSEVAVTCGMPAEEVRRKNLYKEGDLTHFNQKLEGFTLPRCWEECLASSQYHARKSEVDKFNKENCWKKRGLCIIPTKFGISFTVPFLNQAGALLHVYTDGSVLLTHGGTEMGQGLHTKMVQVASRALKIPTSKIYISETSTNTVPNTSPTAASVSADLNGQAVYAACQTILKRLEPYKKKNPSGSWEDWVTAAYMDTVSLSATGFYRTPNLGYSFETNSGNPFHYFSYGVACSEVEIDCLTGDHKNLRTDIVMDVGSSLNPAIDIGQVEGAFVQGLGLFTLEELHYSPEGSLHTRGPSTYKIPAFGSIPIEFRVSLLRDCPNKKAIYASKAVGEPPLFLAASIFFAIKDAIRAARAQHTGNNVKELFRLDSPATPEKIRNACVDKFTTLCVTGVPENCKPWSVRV

Structure (SMILES) | IC50 [1] | inhibition at 30 µM [2]
Nc1nc(N)c2[nH]cnc2n1 [2,6-DIAMINOPURINE] | > 200 µM | –
Nc1ncc2[nH]cnc2n1 [2-AMINOPURINE] | > 200 µM | –
Nc1nc(Cl)c2nc[nH]c2n1 [6-CHLOROGUANINE] | > 200 µM | –
Nc1[nH]cnc2ncnc1-2 [ADENINE] | – | 61.3%
Oc1ncnc2[nH]ncc12 [ALLOPURINOL] | – | 93.8%
Cc1cc2nc[nH]c2cc1C [DIMEDAZOL] | > 200 µM | –
COc1nc(N)nc2nc[nH]c12 [METHYLGUANINE] | > 200 µM | –

Results, then the molecule that gave them:

IC50 [1] | inhibition at 30 µM [2] | Structure (SMILES)
> 200 µM | – | Cc1ccc2[nH]cnc2c1
86.8 µM | – | O=[N+]([O-])c1ccc2[nH]cnc2c1
30.3 µM | 49.8% | Nc1ncnc2[nH]ncc12
> 200 µM | – | Cn1c(=O)[nH]c2nc[nH]c2c1=O [1-METHYLXANTHINE]
92.4 µM | – | Nc1nc2nc[nH]c2c(=S)[nH]1 [THIOGUANINE]
